Measured values published in patent US20110071108A1, “Beta-Cyclodextrin Derivatives as Antibacterial Agents” (Pinnacle Pharmaceuticals, Inc., priority 2005, published 2011).

Key:
Enterococcus faecium = experiment: Bacterial panel testing, MIC by broth microdilution; format: cell-based; details: 20-24 hours growth
Summary of the method: (§1)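 MIC via two-fold broth microdilution of compound (diluted to 10 μg/ml in DMSO) in McFarland-standardized, diluted inoculum in Mueller-Hinton or Brain Heart infusion media. Plates sealed (E. faecium with air-pore tape), incubated 20-24 h; clear wells read. Rifampicin included as control.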

Salmonella choleraesuis = experiment: as above; format: cell-based; details: 20-24 hours growth
Summary of the method: as §1

Staphylococcus aureus = experiment: as above; format: cell-based; details: 20-24 hours growth
Summary of the method: as §1

Lungs cancer cells A549 = experiment: Mammalian cytotoxicity
Eschericia coli = experiment: Bacterial panel testing, MIC by broth microdilution; format: cell-based; details: 20-24 hours growth
Summary of the method: as §1

Pseudomonas aeruginosa = experiment: as above; format: cell-based; details: 20-24 hours growth
Summary of the method: as §1

Structure (SMILES) | MIC EF (Enterococcus faecium) [µg/mL] | MIC SC (Salmonella choleraesuis) [µg/mL] | MIC SA (Staphylococcus aureus) [µg/mL] | Mammalian Cytotoxicity IC50 (Lungs cancer cells A549) [µg/mL] | MIC EC (Eschericia coli) [µg/mL] | MIC PA (Pseudomonas aeruginosa) [µg/mL]
NC[C@H]1O[C@@H]2O[C@H]3[C@H](O)[C@@H](O)[C@@H](O[C@H]4[C@H](O)[C@@H](O)[C@@H](O[C@H]5[C@H](O)[C@@H](O)[C@@H](O[C@H]6[C@H](O)[C@@H](O)[C@@H](O[C@H]7[C@H](O)[C@@H](O)[C@@H](O[C@H]8[C@H](O)[C@@H](O)[C@@H](O[C@H]1[C@H](O)[C@H]2O)O[C@@H]8CN)O[C@@H]7CN)O[C@@H]6CN)O[C@@H]5CN)O[C@@H]4CN)O[C@@H]3CN | >200 | >200 | >200 | 720 |  | 
NCC(=O)NC[C@H]1O[C@@H]2O[C@H]3[C@H](O)[C@@H](O)[C@@H](O[C@H]4[C@H](O)[C@@H](O)[C@@H](O[C@H]5[C@H](O)[C@@H](O)[C@@H](O[C@H]6[C@H](O)[C@@H](O)[C@@H](O[C@H]7[C@H](O)[C@@H](O)[C@@H](O[C@H]8[C@H](O)[C@@H](O)[C@@H](O[C@H]1[C@H](O)[C@H]2O)O[C@@H]8CNC(=O)CN)O[C@@H]7CNC(=O)CN)O[C@@H]6CNC(=O)CN)O[C@@H]5CNC(=O)CN)O[C@@H]4CNC(=O)CN)O[C@@H]3CNC(=O)CN | >200 | >200 | >200 | 690 | >200 | >200
NCCCCCC(=O)NC[C@H]1O[C@@H]2O[C@H]3[C@H](O)[C@@H](O)[C@@H](O[C@H]4[C@H](O)[C@@H](O)[C@@H](O[C@H]5[C@H](O)[C@@H](O)[C@@H](O[C@H]6[C@H](O)[C@@H](O)[C@@H](O[C@H]7[C@H](O)[C@@H](O)[C@@H](O[C@H]8[C@H](O)[C@@H](O)[C@@H](O[C@H]1[C@H](O)[C@H]2O)O[C@@H]8CNC(=O)CCCCCN)O[C@@H]7CNC(=O)CCCCCN)O[C@@H]6CNC(=O)CCCCCN)O[C@@H]5CNC(=O)CCCCCN)O[C@@H]4CNC(=O)CCCCCN)O[C@@H]3CNC(=O)CCCCCN | >200 | >200 |  | 780 | >200 | >200
O[C@@H]1[C@@H](O)[C@H]2O[C@H]3[C@H](O)[C@@H](O)[C@@H](O[C@H]4[C@H](O)[C@@H](O)[C@@H](O[C@H]5[C@H](O)[C@@H](O)[C@@H](O[C@H]6[C@H](O)[C@@H](O)[C@@H](O[C@H]7[C@H](O)[C@@H](O)[C@@H](O[C@H]8[C@H](O)[C@@H](O)[C@@H](O[C@@H]1[C@@H](CNCc1ccccc1)O2)O[C@@H]8CNCc1ccccc1)O[C@@H]7CNCc1ccccc1)O[C@@H]6CNCc1ccccc1)O[C@@H]5CNCc1ccccc1)O[C@@H]4CNCc1ccccc1)O[C@@H]3CNCc1ccccc1 |  |  |  | 840 |  | >200
[N-]=[N+]=NC[C@H]1O[C@@H]2O[C@H]3[C@H](O)[C@@H](O)[C@@H](O[C@H]4[C@H](O)[C@@H](O)[C@@H](O[C@H]5[C@H](O)[C@@H](O)[C@@H](O[C@H]6[C@H](O)[C@@H](O)[C@@H](O[C@H]7[C@H](O)[C@@H](O)[C@@H](O[C@H]8[C@H](O)[C@@H](O)[C@@H](O[C@H]1[C@H](O)[C@H]2O)O[C@@H]8CN=[N+]=[N-])O[C@@H]7CN=[N+]=[N-])O[C@@H]6CN=[N+]=[N-])O[C@@H]5CN=[N+]=[N-])O[C@@H]4CN=[N+]=[N-])O[C@@H]3CN=[N+]=[N-] | >200 | >200 |  | 2116 | >200 | >200
CCCCCCCCNC[C@H]1O[C@@H]2O[C@H]3[C@H](O)[C@@H](O)[C@@H](O[C@H]4[C@H](O)[C@@H](O)[C@@H](O[C@H]5[C@H](O)[C@@H](O)[C@@H](O[C@H]6[C@H](O)[C@@H](O)[C@@H](O[C@H]7[C@H](O)[C@@H](O)[C@@H](O[C@H]8[C@H](O)[C@@H](O)[C@@H](O[C@H]1[C@H](O)[C@H]2O)O[C@@H]8CNCCCCCCCC)O[C@@H]7CNCCCCCCCC)O[C@@H]6CNCCCCCCCC)O[C@@H]5CNCCCCCCCC)O[C@@H]4CNCCCCCCCC)O[C@@H]3CNCCCCCCCC |  |  |  | 123 |  | >200
O[C@@H]1[C@@H](O)[C@H]2O[C@H]3[C@H](O)[C@@H](O)[C@@H](O[C@H]4[C@H](O)[C@@H](O)[C@@H](O[C@H]5[C@H](O)[C@@H](O)[C@@H](O[C@H]6[C@H](O)[C@@H](O)[C@@H](O[C@H]7[C@H](O)[C@@H](O)[C@@H](O[C@H]8[C@H](O)[C@@H](O)[C@@H](O[C@@H]1[C@@H](CNc1ncccc1OCc1ccccc1)O2)O[C@@H]8CNc1ncccc1OCc1ccccc1)O[C@@H]7CNc1ncccc1OCc1ccccc1)O[C@@H]6CNc1ncccc1OCc1ccccc1)O[C@@H]5CNc1ncccc1OCc1ccccc1)O[C@@H]4CNc1ncccc1OCc1ccccc1)O[C@@H]3CNc1ncccc1OCc1ccccc1 |  | >200 |  | 398 | >200 | >200
OC1C2OC(CNc3nc4ccccc4s3)C(OC3OC(CNc4nc5ccccc5s4)C(OC4OC(CNc5nc6ccccc6s5)C(OC5OC(CNc6nc7ccccc7s6)C(OC6OC(CNc7nc8ccccc8s7)C(OC7OC(CNc8nc9ccccc9s8)C(OC8OC(CNc9nc%10ccccc%10s9)C(O2)C(O)C8O)C(O)C7O)C(O)C6O)C(O)C5O)C(O)C4O)C(O)C3O)C1O (centres unmarked) |  | >200 |  | 317 | >200 | >200
OC1C2OC(CNC3CCNCC3)C(OC3OC(CNC4CCNCC4)C(OC4OC(CNC5CCNCC5)C(OC5OC(CNC6CCNCC6)C(OC6OC(CNC7CCNCC7)C(OC7OC(CNC8CCNCC8)C(OC8OC(CNC9CCNCC9)C(O2)C(O)C8O)C(O)C7O)C(O)C6O)C(O)C5O)C(O)C4O)C(O)C3O)C1O (centres unmarked) |  | >200 |  | 378 |  | >200
Cc1ccc(CNCC2OC3OC4C(CNCc5ccc(C)cc5)OC(OC5C(CNCc6ccc(C)cc6)OC(OC6C(CNCc7ccc(C)cc7)OC(OC7C(CNCc8ccc(C)cc8)OC(OC8C(CNCc9ccc(C)cc9)OC(OC9C(CNCc%10ccc(C)cc%10)OC(OC2C(O)C3O)C(O)C9O)C(O)C8O)C(O)C7O)C(O)C6O)C(O)C5O)C(O)C4O)cc1 (centres unmarked) |  | >200 |  | 376 |  | >200
C[C@@H](NCC1OC2OC3C(CN[C@H](C)c4ccccc4)OC(OC4C(CN[C@H](C)c5ccccc5)OC(OC5C(CN[C@H](C)c6ccccc6)OC(OC6C(CN[C@H](C)c7ccccc7)OC(OC7C(CN[C@H](C)c8ccccc8)OC(OC8C(CN[C@H](C)c9ccccc9)OC(OC1C(O)C2O)C(O)C8O)C(O)C7O)C(O)C6O)C(O)C5O)C(O)C4O)C(O)C3O)c1ccccc1 (some centres unmarked) |  |  |  | 105 |  | >200
Cl.Cl.Cl.Cl.Cl.Cl.Cl.NCc1ccc(CSCC2OC3OC4C(CSCc5ccc(CN)cc5)OC(OC5C(CSCc6ccc(CN)cc6)OC(OC6C(CSCc7ccc(CN)cc7)OC(OC7C(CSCc8ccc(CN)cc8)OC(OC8C(CSCc9ccc(CN)cc9)OC(OC9C(CSCc%10ccc(CN)cc%10)OC(OC2C(O)C3O)C(O)C9O)C(O)C8O)C(O)C7O)C(O)C6O)C(O)C5O)C(O)C4O)cc1 (centres unmarked) | >200 |  | >200 | 56.2 |  | 
Cl.Cl.Cl.Cl.Cl.Cl.Cl.NCc1cccc(CSCC2OC3OC4C(CSCc5cccc(CN)c5)OC(OC5C(CSCc6cccc(CN)c6)OC(OC6C(CSCc7cccc(CN)c7)OC(OC7C(CSCc8cccc(CN)c8)OC(OC8C(CSCc9cccc(CN)c9)OC(OC9C(CSCc%10cccc(CN)c%10)OC(OC2C(O)C3O)C(O)C9O)C(O)C8O)C(O)C7O)C(O)C6O)C(O)C5O)C(O)C4O)c1 (centres unmarked) | >200 | >200 |  | 54.3 |  | 
OC1C2OC(CNC3CCCCC3)C(OC3OC(CNC4CCCCC4)C(OC4OC(CNC5CCCCC5)C(OC5OC(CNC6CCCCC6)C(OC6OC(CNC7CCCCC7)C(OC7OC(CNC8CCCCC8)C(OC8OC(CNC9CCCCC9)C(O2)C(O)C8O)C(O)C7O)C(O)C6O)C(O)C5O)C(O)C4O)C(O)C3O)C1O (centres unmarked) |  | >200 |  | 373 |  | >200
COc1cccc(CNCC2OC3OC4C(CNCc5cccc(OC)c5)OC(OC5C(CNCc6cccc(OC)c6)OC(OC6C(CNCc7cccc(OC)c7)OC(OC7C(CNCc8cccc(OC)c8)OC(OC8C(CNCc9cccc(OC)c9)OC(OC9C(CNCc%10cccc(OC)c%10)OC(OC2C(O)C3O)C(O)C9O)C(O)C8O)C(O)C7O)C(O)C6O)C(O)C5O)C(O)C4O)c1 (centres unmarked) |  |  |  | 282 |  | >200
COc1ccccc1CNCC1OC2OC3C(CNCc4ccccc4OC)OC(OC4C(CNCc5ccccc5OC)OC(OC5C(CNCc6ccccc6OC)OC(OC6C(CNCc7ccccc7OC)OC(OC7C(CNCc8ccccc8OC)OC(OC8C(CNCc9ccccc9OC)OC(OC1C(O)C2O)C(O)C8O)C(O)C7O)C(O)C6O)C(O)C5O)C(O)C4O)C(O)C3O (centres unmarked) |  |  |  | 297 |  | >200
COc1ccc(CNCC2OC3OC4C(CNCc5ccc(OC)cc5)OC(OC5C(CNCc6ccc(OC)cc6)OC(OC6C(CNCc7ccc(OC)cc7)OC(OC7C(CNCc8ccc(OC)cc8)OC(OC8C(CNCc9ccc(OC)cc9)OC(OC9C(CNCc%10ccc(OC)cc%10)OC(OC2C(O)C3O)C(O)C9O)C(O)C8O)C(O)C7O)C(O)C6O)C(O)C5O)C(O)C4O)cc1 (centres unmarked) |  | >200 |  | 297 |  | >200
